Experimental data from patent publication US4740233A, “Substituted 1,2,4-triazolo[1,5-a]-pyrimidine-2-sulfonamides and compositions and methods of controlling undesired vegetation and suppressing the nitrification of ammonium nitrogen in soil” (The Dow Chemical Company, priority 1986, dated 1988).

Assays:
rape = experiment: Preemergent control of plant species; assay type: in vivo, Brassica napus; settings: Brassica napus, pre-emergence, 336 h; 0.25 lb/acre; read-out: percent preemergent control
Method in brief: (§1)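 Test compositions were applied evenly to the surface of freshly seeded soil beds and kept under greenhouse conditions for two weeks. Percent control reflects growth reduction compared with water-treated beds of the same species.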

sorghum = experiment: Preemergent control of plant species; assay type: in vivo, Sorghum vulgare; settings: Sorghum, pre-emergence, 336 h; 0.25 lb/acre; read-out: percent preemergent control
Method in brief: as §1

johnson grass = experiment: Preemergent control of plant species; assay type: in vivo, Sorghum halepense; settings: Sorghum halepense, pre-emergence, 336 h; 0.25 lb/acre; read-out: percent preemergent control
Method in brief: as §1

soybean = experiment: Preemergent control of plant species; assay type: in vivo, Glycine max.; settings: Glycine max, pre-emergence, 336 h; 0.25 lb/acre; read-out: percent preemergent control
Method in brief: as §1

barnyardgrass = experiment: Preemergent control of plant species; assay type: in vivo, Echinochloa crusgalli; settings: Echinochloa crus-galli, pre-emergence, 336 h; 0.25 lb/acre; read-out: percent preemergent control
Method in brief: as §1

wheat = experiment: Preemergent control of plant species; assay type: in vivo, Triticum aestivum; settings: Triticum aestivum, pre-emergence, 336 h; 0.25 lb/acre; read-out: percent preemergent control
Method in brief: as §1

yellow nutsedge = experiment: Preemergent control of plant species; assay type: in vivo, Cyperus esculentus; settings: Cyperus, pre-emergence, 336 h; 0.25 lb/acre; read-out: percent preemergent control
Method in brief: as §1

yellow foxtail = experiment: Preemergent control of plant species; assay type: in vivo, Setaria lutescens; settings: Setaria, pre-emergence, 336 h; 0.25 lb/acre; read-out: percent preemergent control
Method in brief: as §1

rice = experiment: Preemergent control of plant species; assay type: in vivo, Oryza sativa; settings: Oryza sativa, pre-emergence, 336 h; 0.25 lb/acre; read-out: percent preemergent control
Method in brief: as §1

velvetleaf = experiment: Preemergent control of plant species; assay type: in vivo, Abutilon theophrasti; settings: Abutilon theophrasti, pre-emergence, 336 h; 0.25 lb/acre; read-out: percent preemergent control
Method in brief: as §1

jimsonweed = experiment: Preemergent control of plant species; assay type: in vivo, Datura stramonium; settings: Datura stramonium, pre-emergence, 336 h; 0.25 lb/acre; read-out: percent preemergent control
Method in brief: as §1

cotton = experiment: Preemergent control of plant species; assay type: in vivo, Gossypium spp.; settings: Gossypium hirsutum, pre-emergence, 336 h; 0.25 lb/acre; read-out: percent preemergent control
Method in brief: as §1

corn (First In) = experiment: Gametocidal activity in corn, postemergent application; assay type: in vivo; settings: sprayed at three leaf stage
Description: The compounds of this invention are also plant gametocides depending on the dosage and timing of application and the species of plant to which the compounds are applied. For example, certain of the compounds were sprayed on corn seedlings at the three leaf stage of growth, and the seedlings were returned to the greenhouse for subsequent growth and observation. The corn variety was "First In". The chemicals were dissolved in acetone, and the acetone solution was diluted with water containing Tween 20 wetting agent such that the final spray solution contained 50% acetone and 0.1% Tween 20 in water. […] Tabulated below are data which illustrate the use of the compounds of this invention as plant gametocides in corn.

sugar beet = experiment: Preemergent control of plant species; assay type: in vivo, Beta saccharifera; settings: Beta vulgaris, pre-emergence, 336 h; 0.25 lb/acre; read-out: percent preemergent control
Method in brief: as §1

corn = experiment: Preemergent control of plant species; assay type: in vivo, Zea mays; settings: Zea mays, pre-emergence, 336 h; 0.25 lb/acre; read-out: percent preemergent control
Method in brief: as §1

annual morning glory = experiment: Preemergent control of plant species; assay type: in vivo, Ipomoea spp.; settings: Ipomoea, pre-emergence, 336 h; 0.25 lb/acre; read-out: percent preemergent control
Method in brief: as §1

Compound	plant injury at 280.212 g/ha (rape) [%]	plant injury at 280.212 g/ha (sorghum) [%]	pest or weed control at 280.212 g/ha (johnson grass) [%]	plant injury at 280.212 g/ha (soybean) [%]	pest or weed control at 280.212 g/ha (barnyardgrass) [%]	plant injury at 280.212 g/ha (wheat) [%]	pest or weed control at 280.212 g/ha (yellow nutsedge) [%]	pest or weed control at 280.212 g/ha (yellow foxtail) [%]	plant injury at 280.212 g/ha (rice) [%]	pest or weed control at 280.212 g/ha (velvetleaf) [%]	pest or weed control at 280.212 g/ha (jimsonweed) [%]	plant injury at 280.212 g/ha (cotton) [%]	concentration required to produce 100% control (gametocidal activity) (corn (First In)) [ppm]	plant injury at 280.212 g/ha (sugar beet) [%]	plant injury at 280.212 g/ha (corn) [%]	pest or weed control at 280.212 g/ha (annual morning glory) [%]
CC(=O)N(c1c(F)cccc1F)S(=O)(=O)c1nc2nc(C)ccn2n1 [Compound 275]	100	100	100	20	100	100	100	100	90	100	100	100	400	100	80	90
Cc1ccn2nc(S(=O)(=O)N(C(=O)C(C)C)c3c(F)cccc3F)nc2n1 [Compound 277]	100	90	100	20	90	80	100	100	80	100	100	50	200	100	40	30
CCCCC(=O)N(c1c(F)cccc1F)S(=O)(=O)c1nc2nc(C)ccn2n1 [Compound 279]	100	100	100	20	100	90	100	100	100	100	100	90	50	100	80	90
